# Test results taken from US20220062278A1, “SMALL MOLECULE INHIBITORS OF THE ANDROGEN RECEPTOR ACTIVITY AND/OR EXPRESSION AND USES THEREOF” (Arizona Board of Regents on Behalf of the Univeristy of …, priority 2018, published 2022).
# Target: T1, AR (Homo sapiens, UniProt P10275)
# T1 sequence (P10275 669-920 limits assumed): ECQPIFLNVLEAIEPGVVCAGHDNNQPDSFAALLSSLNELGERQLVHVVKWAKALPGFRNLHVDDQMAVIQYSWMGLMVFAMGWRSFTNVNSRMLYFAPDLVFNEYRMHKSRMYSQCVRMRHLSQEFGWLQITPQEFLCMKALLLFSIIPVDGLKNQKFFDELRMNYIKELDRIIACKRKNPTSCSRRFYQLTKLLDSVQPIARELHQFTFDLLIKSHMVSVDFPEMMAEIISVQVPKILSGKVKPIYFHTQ
# Assay: GeneBlazer assay, inhibition against AR activity
# Format: cell-based
# Settings: 10 uM; Table II
# From the text: Tables II, III and IV show % inhibition against AR activity at 10 μm within a GeneBlazer assay, and IC50 values (nM) in GeneBlazer assay.
row,inhibition at 10 µM [%],Compound
1,102,"CCCCn1nnnc1C(c1cc2ccccc2[nH]1)N1CCN(c2c(Cl)cncc2Cl)CC1 (stereo not drawn) [Compound 46, 2-((1-butyl-1H-tetrazol-5-yl)(4-(3,5-dichloropyridin-4-yl)piperazin-1-yl)methyl)-1H-indole]"
2,98.2,"CCCCn1nnnc1C(c1cccs1)N1CCN(c2c(Cl)cncc2Cl)CC1 (stereo not drawn) [Compound 10, 1-((1-butyl-1H-tetrazol-5-yl)(thiophen-2-yl)methyl)-4-(3,5-dichloropyridin-4-yl)piperazine]"
3,108,"CC(C)(C)n1nnnc1C(c1ccnc2ccccc12)N1CCN(c2c(Cl)cncc2Cl)CC1 (stereo not drawn) [Compound 29, 4-((1-(tert-butyl)-1H-tetrazol-5-yl)(4-(3,5-dichloropyridin-4-yl)piperazin-1-yl)methyl)quinoline]"
4,47.9,"CCCCn1nnnc1C(c1cccc(O)c1)N1CCN(c2ccc(C(C)=O)cc2)CC1 (stereo not drawn) [Compound 63, 1-(4-(4-((1-butyl-1H-tetrazol-5-yl)(3-hydroxyphenyl)methyl)piperazin-1-yl)phenyl)ethanone]"
5,110,"Oc1cccc(C(c2nnnn2C2CCCCC2)N2CCN(c3c(Cl)cncc3Cl)CC2)c1 (stereo not drawn) [Compound 18, 3-((1-cyclohexyl-1H-tetrazol-5-yl)(4-(3,5-dichloropyridin-4-yl)piperazin-1-yl)methyl)phenol]"
6,107,"CC(C)(C)n1nnnc1C(c1cccc2ccccc12)N1CCN(c2c(Cl)cncc2Cl)CC1 (stereo not drawn) [Compound 39, 1-((1-(tert-butyl)-1H-tetrazol-5-yl)(naphthalen-1-yl)methyl)-4-(3,5-dichloropyridin-4-yl)piperazine]"
7,108,"CCCCn1nnnc1C(c1cccc(OC)c1)N1CCN(c2c(Cl)cncc2Cl)CC1 (stereo not drawn) [Compound 7, 1-((1-butyl-1H-tetrazol-5-yl)(3-methoxyphenyl)methyl)-4-(3,5-dichloropyridin-4-yl)piperazine]"
8,102,"CC(C)(C)n1nnnc1C(c1cccc(O)c1)N1CCN(c2c(Cl)cncc2Cl)CC1 (stereo not drawn) [Compound 16, 3-((1-(tert-butyl)-1H-tetrazol-5-yl)(4-(3,5-dichloropyridin-4-yl)piperazin-1-yl)methyl)phenol]"
9,81.5,"CCCCn1nnnc1C(c1cccc(O)c1)N1CCN(c2c(Cl)cncc2Cl)CC1 (stereo not drawn) [Compound 1, 3-((1-butyl-1H-tetrazol-5-yl)(4-(3,5-dichloropyridin-4-yl)piperazin-1-yl)methyl)phenol]"
10,94.5,"CCCCn1nnnc1C(c1cccc(O)c1)N1CCN(c2ccccc2OC)CC1 (stereo not drawn) [Compound 59, 3-((1-butyl-1H-tetrazol-5-yl)(4-(2-methoxyphenyl)piperazin-1-yl)methyl)phenol]"
11,95.3,CCCCn1nnnc1C(c1cccc(F)c1)N1CCN(c2c(Cl)cncc2Cl)CC1 (stereo not drawn) [Compound 8]
12,102,"CCCCn1nnnc1C(c1ccc(F)cc1)N1CCN(c2c(Cl)cncc2Cl)CC1 (stereo not drawn) [Compound 36, 1-((1-butyl-1H-tetrazol-5-yl)(4-fluorophenyl)methyl)-4-(3,5-dichloropyridin-4-yl)piperazine]"
13,104,CC(C)(C)n1nnnc1C(c1cccs1)N1CCN(c2c(Cl)cncc2Cl)CC1 (stereo not drawn) [Compound 9]
14,114,"CC(C)(C)n1nnnc1C(c1cc2ccccc2[nH]1)N1CCN(c2c(Cl)cncc2Cl)CC1 (stereo not drawn) [Compound 47, 2-((1-(tert-butyl)-1H-tetrazol-5-yl)(4-(3,5-dichloropyridin-4-yl)piperazin-1-yl)methyl)-1H-indole]"
15,96.7,"CC(C)n1nnnc1C(c1ccco1)N1CCN(c2c(Cl)cncc2Cl)CC1 (stereo not drawn) [Compound 50, 1-(3,5-dichloropyridin-4-yl)-4-(furan-2-yl(1-isopropyl-1H-tetrazol-5-yl)methyl)piperazine]"
16,24.9,"CCCCn1nnnc1C(c1cccc(O)c1)N1CCN(C(=O)OCc2ccccc2)CC1 (stereo not drawn) [Compound 57, benzyl 4-((1-butyl-1H-tetrazol-5-yl)(3-hydroxyphenyl)methyl)piperazine-1-carboxylate]"
17,79.8,"CCCCn1nnnc1C(c1cccc(O)c1)N1CCN(c2ccccc2F)CC1 (stereo not drawn) [Compound 65, 3-((1-butyl-1H-tetrazol-5-yl)(4-(2-fluorophenyl)piperazin-1-yl)methyl)phenol]"
18,96.8,"CCCCn1nnnc1C(c1cc2ccccc2o1)N1CCN(c2c(Cl)cncc2Cl)CC1 (stereo not drawn) [Compound 28, 1-(benzofuran-2-yl(1-butyl-1H-tetrazol-5-yl)methyl)-4-(3,5-dichloropyridin-4-yl)piperazine]"
19,111,"CC(C)(C)n1nnnc1C(c1ccc(F)cc1)N1CCN(c2c(Cl)cncc2Cl)CC1 (stereo not drawn) [Compound 37, 1-((1-(tert-butyl)-1H-tetrazol-5-yl)(4-fluorophenyl)methyl)-4-(3,5-dichloropyridin-4-yl)piperazine]"
20,95.2,"CCCCn1nnnc1CN1CCN(c2c(Cl)cncc2Cl)CC1 [Compound 5, 1-((1-butyl-1H-tetrazol-5-yl)methyl)-4-(3,5-dichloropyridin-4-yl)piperazine]"
21,1.04,"CCCCn1nnnc1C(c1cccc(O)c1)N1CCN(c2ccncc2)CC1 (stereo not drawn) [Compound 27, 3-((1-butyl-1H-tetrazol-5-yl)(4-(pyridin-4-yl)piperazin-1-yl)methyl)phenol]"
22,91.4,"CC(C)(C)n1nnnc1C(c1ccncc1)N1CCN(c2c(Cl)cncc2Cl)CC1 (stereo not drawn) [Compound 31, 1-((1-(tert-butyl)-1H-tetrazol-5-yl)(pyridin-4-yl)methyl)-4-(3,5-dichloropyridin-4-yl)piperazine]"
23,98.4,"CCCCn1nnnc1C(c1ccc2c(c1)OCO2)N1CCN(c2c(Cl)cncc2Cl)CC1 (stereo not drawn) [Compound 11, 1-(benzo[d][1,3]dioxol-5-yl(1-butyl-1H-tetrazol-5-yl)methyl)-4-(3,5-dichloropyridin-4-yl)piperazine]"
24,93.9,"CCCCn1nnnc1C(c1ccc2[nH]ccc2c1)N1CCN(c2c(Cl)cncc2Cl)CC1 (stereo not drawn) [Compound 12, 5-((1-butyl-1H-tetrazol-5-yl)(4-(3,5-dichloropyridin-4-yl)piperazin-1-yl)methyl)-1H-indole]"
25,106,"CCCCn1nnnc1C(c1cccc(O)c1)N1CCN(c2cccc(C)c2C)CC1 (stereo not drawn) [Compound 66, 3-((1-butyl-1H-tetrazol-5-yl)(4-(2,3-dimethylphenyl)piperazin-1-yl)methyl)phenol]"
26,108,"Oc1cccc(C(c2nnnn2C2CCCC2)N2CCN(c3c(Cl)cncc3Cl)CC2)c1 (stereo not drawn) [Compound 17, 3-((1-cyclopentyl-1H-tetrazol-5-yl)(4-(3,5-dichloropyridin-4-yl)piperazin-1-yl)methyl)phenol]"
27,93,"CCCCNC(=O)C(c1cccc(O)c1)N1CCN(c2c(Cl)cncc2Cl)CC1 (stereo not drawn) [Compound 21, N-butyl-2-(4-(3,5-dichloropyridin-4-yl)piperazin-1-yl)-2-(3-hydroxyphenyl)acetamide]"
28,102,"CCCCn1nnnc1C(c1cccc(O)c1)N1CCN(c2ncc(C(F)(F)F)cc2Cl)CC1 (stereo not drawn) [Compound 61, 3-((1-butyl-1H-tetrazol-5-yl)(4-(3-chloro-5-(trifluoromethyl)pyridin-2-yl)piperazin-1-yl)methyl)phenol]"

# Same assay, conditions: Table II
row,IC50 [nM],Compound
1,381,"CCCCn1nnnc1C(c1cc2ccccc2[nH]1)N1CCN(c2c(Cl)cncc2Cl)CC1 (stereo not drawn) [Compound 46, 2-((1-butyl-1H-tetrazol-5-yl)(4-(3,5-dichloropyridin-4-yl)piperazin-1-yl)methyl)-1H-indole]"
2,45.9,"CCCCn1nnnc1C(c1cccc(O)c1)N1CCN(c2c(Cl)cncc2Cl)CC1 (stereo not drawn) [Compound 1, 3-((1-butyl-1H-tetrazol-5-yl)(4-(3,5-dichloropyridin-4-yl)piperazin-1-yl)methyl)phenol]"
3,182,"CC(C)(C)n1nnnc1C(c1cc2ccccc2[nH]1)N1CCN(c2c(Cl)cncc2Cl)CC1 (stereo not drawn) [Compound 47, 2-((1-(tert-butyl)-1H-tetrazol-5-yl)(4-(3,5-dichloropyridin-4-yl)piperazin-1-yl)methyl)-1H-indole]"
4,1710,"CCCCn1nnnc1CN1CCN(c2c(Cl)cncc2Cl)CC1 [Compound 5, 1-((1-butyl-1H-tetrazol-5-yl)methyl)-4-(3,5-dichloropyridin-4-yl)piperazine]"
5,2270,"CCCCn1nnnc1C(c1cccc(O)c1)N1CCN(c2ncc(C(F)(F)F)cc2Cl)CC1 (stereo not drawn) [Compound 61, 3-((1-butyl-1H-tetrazol-5-yl)(4-(3-chloro-5-(trifluoromethyl)pyridin-2-yl)piperazin-1-yl)methyl)phenol]"
